Experimental data published in patent publication US11081236B2, “Diagnostic and therapeutic methods for the treatment of breast cancer” (GENENTECH, INC., priority 2018, dated 2021).

System: panel of 14 ER+/HER2− breast cancer cell lines
Assay: 8-day in vitro viability assay, GR (Growth Rate) method
Type: cell-based
Settings: 300 nM
Experimental: The relationship between ER pathway activity and the anti-proliferative effect of the ER antagonist fulvestrant was explored in a panel of 14 ER+/HER2− breast cancer cell lines. RNA-sequencing data was leveraged to determine the E2-induced score, determined by expression of a set of E2-induced genes (as described above), of a series of ER+/HER2− breast cancer cell lines grown under standard culture conditions, in the presence of estrogen. The effect of ER inhibition by 300 nM fulvestrant on cellular proliferation was determined in an 8-day in vitro viability assay using the GR (Growth Rate) method described by Hafner et al. (Nat Methods 13:6, 2016). The E2-induced score was then plotted against the effect of fulvestrant on cellular growth rate.

## C[C@]12CC[C@@H]3c4ccc(O)cc4C[C@@H](CCCCCCCCC[S+]([O-])CCCC(F)(F)C(F)(F)F)[C@H]3[C@@H]1CC[C@@H]2O (some centres unmarked) [Fulvestrant, fulvestrant]
Cell lines exhibiting higher E2-induced scores
  impact on growth rate: considerably greater impact
Cell lines with E2-induced scores in the lowest 25th percentile (ZR-75-1, MDA-MB-415, MDA-MB-175-VII, KPL-1)
  impact on growth rate: little impact
